# From the supplement of paper PMC4862054
# What was measured:
# Conditions in all cases: incubation time: 72 h
# MDA-MB-231 [1] = experiment: normalised response (% of control), CellTox Green; higher = less cell death (100 = DMSO, 0 = benzethonium chloride kill control)
# How it was run: (§1)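 After 72 h with compound in 384-well plates, breast cancer cell lines seeded as 20 µl suspension were read for CellTox Green fluorescence at 485/520 nm. CellTiter-Glo luminescence was then read after 10 min at room temperature. Compound was present at 5 concentrations in 10-fold steps over a 10,000-fold range set per compound, and plates were normalised to 0.1 % DMSO (100) and a positive kill control (0). Values are normalised signals, each at a single concentration.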
# CAL-85-1 [2] = experiment: as above
# How it was run: as §1
# BT-549 [3] = experiment: as above
# How it was run: as §1
# CAL-51 [4] = experiment: as above
# How it was run: as §1
# HCC1599 [5] = experiment: as above
# How it was run: as §1
# DU-4475 [6] = experiment: as above
# How it was run: as §1
# MCF-10A [7] = experiment: as above
# How it was run: as §1
# CAL-148 [8] = experiment: as above
# How it was run: as §1
# MDA-MB-468 [9] = experiment: as above
# How it was run: as §1
# CAL-120 [10] = experiment: as above
# How it was run: as §1
# MDA-MB-453 [11] = experiment: as above
# How it was run: as §1
# MDA-MB-436 [12] = experiment: as above
# How it was run: as §1
# BT-474 [13] = experiment: as above
# How it was run: as §1
# HDQ-P1 [14] = experiment: as above
# How it was run: as §1
# MFM-223 [15] = experiment: normalised response (% of control), CellTiter-Glo; higher = more viable cells (100 = DMSO, 0 = benzethonium chloride kill control)
# Experimental: (§2)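 DSRT, 72 h incubation, CellTox Green / CellTiter-Glo readout. Signal is normalised to DMSO and benzethonium chloride controls. Value is the normalised response at dose 3.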
# MDA-MB-231 [16] = experiment: as above
# Experimental: as §2
# CAL-85-1 [17] = experiment: as above
# Experimental: as §2
# BT-549 [18] = experiment: as above
# Experimental: as §2
# Hs578T [19] = experiment: as above
# Experimental: as §2
# CAL-51 [20] = experiment: as above
# Experimental: as §2
# HCC1599 [21] = experiment: as above
# Experimental: as §2
# SK-BR-3 [22] = experiment: as above
# Experimental: as §2
# HCC1143 [23] = experiment: as above
# Experimental: as §2
# DU-4475 [24] = experiment: as above
# Experimental: as §2
# MCF-10A [25] = experiment: as above
# Experimental: as §2
# CAL-148 [26] = experiment: as above
# Experimental: as §2
# MDA-MB-468 [27] = experiment: as above
# Experimental: as §2
# CAL-120 [28] = experiment: as above
# Experimental: as §2
# MDA-MB-453 [29] = experiment: as above
# Experimental: as §2
# HCC1937 [30] = experiment: as above
# Experimental: as §2
# MDA-MB-436 [31] = experiment: as above
# Experimental: as §2
# BT-474 [32] = experiment: as above
# Experimental: as §2
# HDQ-P1 [33] = experiment: as above
# Experimental: as §2
# MFM-223 [34] = experiment: normalised response (% of control), CellTox Green; higher = less cell death (100 = DMSO, 0 = benzethonium chloride kill control)
# How it was run: as §1
# Hs578T [35] = experiment: as above
# How it was run: as §1
# HCC1143 [36] = experiment: as above
# How it was run: as §1
# HCC1937 [37] = experiment: as above
# How it was run: as §1
# MFM-223 [38] = experiment: normalised response (% of control), CellTiter-Glo; higher = more viable cells (100 = DMSO, 0 = benzethonium chloride kill control); remark: listed apart in the source
# How it was run: as §1
# MDA-MB-231 [39] = experiment: as above; remark: listed apart in the source
# How it was run: as §1
# CAL-85-1 [40] = experiment: as above; remark: listed apart in the source
# How it was run: as §1
# BT-549 [41] = experiment: as above; remark: listed apart in the source
# How it was run: as §1
# Hs578T [42] = experiment: as above; remark: listed apart in the source
# How it was run: as §1
# CAL-51 [43] = experiment: as above; remark: listed apart in the source
# How it was run: as §1
# HCC1599 [44] = experiment: as above; remark: listed apart in the source
# How it was run: as §1
# SK-BR-3 [45] = experiment: as above; remark: listed apart in the source
# How it was run: as §1
# HCC1143 [46] = experiment: as above; remark: listed apart in the source
# How it was run: as §1
# DU-4475 [47] = experiment: as above; remark: listed apart in the source
# How it was run: as §1
# MCF-10A [48] = experiment: as above; remark: listed apart in the source
# How it was run: as §1
# CAL-148 [49] = experiment: as above; remark: listed apart in the source
# How it was run: as §1
# MDA-MB-468 [50] = experiment: as above; remark: listed apart in the source
# How it was run: as §1
# CAL-120 [51] = experiment: as above; remark: listed apart in the source
# How it was run: as §1
# MDA-MB-453 [52] = experiment: as above; remark: listed apart in the source
# How it was run: as §1
# HCC1937 [53] = experiment: as above; remark: listed apart in the source
# How it was run: as §1
# MDA-MB-436 [54] = experiment: as above; remark: listed apart in the source
# How it was run: as §1
# BT-474 [55] = experiment: as above; remark: listed apart in the source
# How it was run: as §1
# HDQ-P1 [56] = experiment: as above; remark: listed apart in the source
# How it was run: as §1
Compound,normalised response (MDA-MB-231 [1]),normalised response (CAL-85-1 [2]),normalised response (BT-549 [3]),normalised response (CAL-51 [4]),normalised response (HCC1599 [5]),normalised response (DU-4475 [6]),normalised response (MCF-10A [7]),normalised response (CAL-148 [8]),normalised response (MDA-MB-468 [9]),normalised response (CAL-120 [10]),normalised response (MDA-MB-453 [11]),normalised response (MDA-MB-436 [12]),normalised response (BT-474 [13]),normalised response (HDQ-P1 [14]),normalised response (MFM-223 [34]),normalised response (Hs578T [35]),normalised response (HCC1143 [36]),normalised response (HCC1937 [37]),normalised response (MFM-223 [38]),normalised response (MDA-MB-231 [39]),further results
Cn1cc(C[C@@H](N)C(=O)O)c2ccccc21 [1-methyl-D-tryptophan] (50 nM),83%,98.5%,88%,80.4%,94.2%,103%,102%,68.5%,99.9%,96.8%,105%,73.2%,99.9%,105%,–,–,–,–,–,–,normalised response (MFM-223 [15]): 93.4%; normalised response (MDA-MB-231 [16]): 98.5%; normalised response (CAL-85-1 [17]): 102%; normalised response (BT-549 [18]): 107%; normalised response (Hs578T [19]): 95.4%; normalised response (CAL-51 [20]): 67.8%; normalised response (HCC1599 [21]): 92.6%; normalised response (SK-BR-3 [22]): 90.8%; normalised response (HCC1143 [23]): 99%; normalised response (DU-4475 [24]): 100%; normalised response (MCF-10A [25]): 102%; normalised response (CAL-148 [26]): 90.1%; normalised response (MDA-MB-468 [27]): 92.6%; normalised response (CAL-120 [28]): 104%; normalised response (MDA-MB-453 [29]): 96%; normalised response (HCC1937 [30]): 96.2%; normalised response (MDA-MB-436 [31]): 102%; normalised response (BT-474 [32]): 103%; normalised response (HDQ-P1 [33]): 102%
CC(C)n1nc(-c2ccc3oc(N)nc3c2)c2c(N)ncnc21 [INK128] (100 nM),108%,101%,115%,87.6%,95.5%,94%,95.8%,58.8%,137%,97.1%,26%,94.4%,96.5%,108%,93.9%,65.8%,8.7%,96.1%,32.2%,50.3%,normalised response (CAL-85-1 [40]): 35.4%; normalised response (BT-549 [41]): 30.7%; normalised response (Hs578T [42]): 35.1%; normalised response (CAL-51 [43]): 29.3%; normalised response (HCC1599 [44]): 68%; normalised response (SK-BR-3 [45]): 22.6%; normalised response (HCC1143 [46]): 39.9%; normalised response (DU-4475 [47]): 66%; normalised response (MCF-10A [48]): 43.5%; normalised response (CAL-148 [49]): 32.7%; normalised response (MDA-MB-468 [50]): 39.5%; normalised response (CAL-120 [51]): 30.6%; normalised response (MDA-MB-453 [52]): 37.2%; normalised response (HCC1937 [53]): 59.7%; normalised response (MDA-MB-436 [54]): 48.6%; normalised response (BT-474 [55]): 50.4%; normalised response (HDQ-P1 [56]): 42.6%
N[C@@H](Cc1ccc(N(CCCl)CCCl)cc1)C(=O)O [Melphalan] (1250 nM),-55.7%,-12%,28.1%,-30.1%,45.5%,51.8%,-50.4%,4.59%,-18.1%,72.2%,25.6%,84%,-13.4%,-17.2%,10.1%,35.8%,95.9%,18.1%,0.49%,0.06%,normalised response (CAL-85-1 [40]): 0.23%; normalised response (BT-549 [41]): 22.1%; normalised response (Hs578T [42]): 16.4%; normalised response (CAL-51 [43]): 0.26%; normalised response (HCC1599 [44]): 2.61%; normalised response (SK-BR-3 [45]): -0.01%; normalised response (HCC1143 [46]): 34.5%; normalised response (DU-4475 [47]): 0%; normalised response (MCF-10A [48]): 0.24%; normalised response (CAL-148 [49]): 7.68%; normalised response (MDA-MB-468 [50]): 0.81%; normalised response (CAL-120 [51]): 50%; normalised response (MDA-MB-453 [52]): 0.2%; normalised response (HCC1937 [53]): 4.2%; normalised response (MDA-MB-436 [54]): 9.28%; normalised response (BT-474 [55]): 1.75%; normalised response (HDQ-P1 [56]): 1.18%
CO[C@H]1C[C@@H]2CC[C@@H](C)[C@@](O)(O2)C(=O)C(=O)N2CCCC[C@H]2C(=O)O[C@H]([C@H](C)C[C@@H]2CC[C@@H](O)[C@H](OC)C2)CC(=O)[C@H](C)/C=C(\C)[C@@H](O)[C@@H](OC)C(=O)[C@H](C)C[C@H](C)/C=C/C=C/C=C/1C [Sirolimus] (10 nM),116%,108%,87.2%,104%,90.7%,102%,104%,52.9%,157%,105%,107%,69.6%,94.8%,109%,91.1%,59.7%,115%,97.7%,70.9%,93.9%,normalised response (CAL-85-1 [40]): 63%; normalised response (BT-549 [41]): 58.3%; normalised response (Hs578T [42]): 67.5%; normalised response (CAL-51 [43]): 65.5%; normalised response (HCC1599 [44]): 98.8%; normalised response (SK-BR-3 [45]): 66.4%; normalised response (HCC1143 [46]): 69.1%; normalised response (DU-4475 [47]): 88.5%; normalised response (MCF-10A [48]): 102%; normalised response (CAL-148 [49]): 67.1%; normalised response (MDA-MB-468 [50]): 51.8%; normalised response (CAL-120 [51]): 67.3%; normalised response (MDA-MB-453 [52]): 66.2%; normalised response (HCC1937 [53]): 81.5%; normalised response (MDA-MB-436 [54]): 79.1%; normalised response (BT-474 [55]): 83.5%; normalised response (HDQ-P1 [56]): 82.8%
